The values below come from BindingDB's records for doi:10.1002/cbic.201100332 (University of British Columbia, 2011).

The structures appear in SMILES notation.

This test has as its target T1, Lysosomal acid glucosylceramidase (Homo sapiens, UniProt P04062).
T1 sequence (P04062 whole entry): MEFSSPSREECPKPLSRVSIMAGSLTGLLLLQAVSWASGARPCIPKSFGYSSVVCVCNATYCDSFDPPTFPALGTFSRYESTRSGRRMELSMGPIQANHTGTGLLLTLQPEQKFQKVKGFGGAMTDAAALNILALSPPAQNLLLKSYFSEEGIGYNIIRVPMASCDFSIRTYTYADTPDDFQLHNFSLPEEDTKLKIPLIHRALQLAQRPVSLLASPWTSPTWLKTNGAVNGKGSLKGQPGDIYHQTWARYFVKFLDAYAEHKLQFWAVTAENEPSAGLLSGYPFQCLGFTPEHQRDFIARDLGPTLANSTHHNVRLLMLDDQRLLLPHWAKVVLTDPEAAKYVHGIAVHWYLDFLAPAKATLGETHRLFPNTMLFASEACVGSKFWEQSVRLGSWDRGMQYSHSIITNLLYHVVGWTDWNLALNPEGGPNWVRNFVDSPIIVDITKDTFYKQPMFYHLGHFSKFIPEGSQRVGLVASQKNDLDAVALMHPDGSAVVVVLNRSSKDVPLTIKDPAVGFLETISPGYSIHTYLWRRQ
The test is described as follows: Fluorescene-based Assay. From the text: Fluorescene-based assay using beta-glucocerebrosidase.

In general, Ki refers to the dissociation constant of the complex between target and ligand, obtained from inhibition or displacement. Low values mean a stronger hold on the target, high ones a looser hold on the target. Take `CCCC1NCC(O)C(O)C1CO` (stereo unspecified) [Isofagomine derivative, 6]: the Ki by setting is: (pH 5.5) 610 nM; (pH 7) 210 nM.

Consider `CCCC1(CCC)NCC(O)C(O)C1CO` (stereo unspecified) [Isofagomine derivative, 8], for which the Ki amounted to 600 nM (pH 5.5) and 1400 nM (pH 7).

For the molecule `OCCCC1NCC(O)C(O)C1CO` (stereo unspecified) [Isofagomine derivative, 10], the Ki runs as follows: (pH 5.5) 100 nM; (pH 7) 110 nM.
